# Reference: patent US20230288403A1, “METHOD FOR INDUCING EXTRACELLULAR TRAP (ET) FORMATION” (Tridek-One Therapeutics, priority 2022, published 2023)
# Entries after “also recorded” stand apart in the source; their conditions may differ.
# B1: motavizumab: humanized monoclonal antibody directed against the respiratory syncytial virus (RSV), produced as a human IgG4 (antibody, chains of the INN, looked up, V domains shown)
# VH: QVTLRESGPALVKPTQTLTLTCTFSGFSLSTAGMSVGWIRQPPGKALEWLADIWWDDKKHYNPSLKDRLTISKDTSKNQVVLKVTNMDPADTATYYCARDMIFNFYFDVWGQGTTVTVSS
# VL: DIQMTQSPSTLSASVGDRVTITCSASSRVGYMHWYQQKPGKAPKLLIYDTSKLASGVPSRFSGSGSGTEFTLTISSLQPDDFATYYCFQGSGYPFTFGGGTKVEIK
# modifications: IgG4
# notes: humanized monoclonal antibody directed against the respiratory syncytial virus (RSV), produced as a human IgG4
# How the values were obtained:
# Type in all cases: cell-based
# [1] = tested on: human peripheral whole blood; test: ET formation in diluted whole blood, live cell fluorescent microscopy (Sytox Green); settings: 5 μM inhibitor; 20 μg/mL of human polyvalent Ig; whole blood 1/10 dilution
# Protocol: (§1) High-binding, sterile 96-well plates (Greiner Bio-One, Frickenhausen, Germany) were coated with human polyvalent Ig as described in Example 1, using a coating solution comprising human polyvalent Ig at a concentration ranging from 10 to 80 μg/mL, as indicated.
# Where indicated, the SYK inhibitor BAY-61-3606, obtained from Selleckchem (reference: S7006), was added to the whole blood samples diluted in culture medium at a final concentration of 5 μM.
# Fresh human peripheral whole blood was collected from healthy donors and diluted ten times (1/10 dilution) in culture medium containing cell-impermeant, nucleic acid dye Sytox Green at a concentration of 1 μM to detect ET formation. Diluted whole blood was then distributed in 96-well plates (Greiner Bio-One, Frickenhausen, Germany), in particular in 96-well plates coated with human polyvalent Ig or bovine serum albumin (negative control) as described above.
# Time-lapse images were acquired by live cell fluorescent microscopy. Quantitative time-course measure of ET formation was performed by computer-assisted image analysis (data are expressed as GCU/well).
# [2] = tested on: human peripheral blood neutrophils; test: NET formation by live cell fluorescent microscopy (Sytox Green) with computer-assisted image analysis
# Protocol: (§2) Human polyvalent immunoglobulins (or human polyvalent Ig) also referred to as intravenous immunoglobulin or IVIg (Privigen, CSL Behring LLC) or human serum albumin or HSA (Sigma Aldrich—reference: H5667), used as negative control, diluted in coating solution (DPBS Gibco—reference: 14190) were allowed to adsorb for 2 hours at room temperature on high-binding, sterile 96-well plates suitable for fluorescence microscopy (Greiner Bio-One, Frickenhausen, Germany). Unless indicated otherwise, deposits of human polyvalent Ig were obtained with a coating solution (DPBS no calcium, no magnesium (ThermoFisher—reference: 14190) consisting of KCl 2.67 mM, KH2PO4 1.47 mM, NaCl 137.9 mM, Na2HPO4-7H2O 8.06 mM) comprising human polyvalent Ig at a concentration of 100 μg/mL. Similarly, unless indicated otherwise, deposits of HSA were obtained with a coating solution comprising HSA at a concentration of 100 μg/mL. Phorbol-12-myristate-13-acetate or PMA (Sigma Aldrich—reference: P8139) was used as positive control. PMA was added to the culture medium at a final concentration of nM. In some experiments (see FIG. 5A), human polyvalent Ig were added in the culture medium at a final concentration ranging from 3 to 300 μg/mL.
# (§3) Neutrophils were isolated from the peripheral blood of healthy human donors by negative magnetic bead selection using a commercially available kit (STEMCELL Technologies—reference: 19666). Isolated neutrophils were then distributed in 96-well plates (Greiner Bio-One, Frickenhausen, Germany), in particular in 96-well plates coated with human polyvalent Ig or HSA as described above, at a concentration of 7.5×10^4 cells per well, corresponding to 10^6 cells/mL of culture medium. Neutrophils were then cultured in HBSS with calcium and magnesium (Gibco—reference: 24020-091) under standard conditions (i.e., humidified incubator 37° C. and 5% CO2). […]
# as §1, with “3” for “10”, “300” for “80”, “indicated. If no indication is given, deposits of human polyvalent Ig were obtained with a coating solution comprising human polyvalent Ig at a concentration of 100 μg/mL.” for “indicated.”
# (§4) Where indicated, the SYK inhibitor BAY-61-3606, obtained from Selleckchem (reference: S7006), was added to the culture medium at a final concentration ranging from 0.05 to 5 (0.05, 0.1, 0.5, 1, 5 as indicated). Where indicated, the calcineurin inhibitor FK506 (also known as tacrolimus), obtained from ASTELLAS PHARMA (PROGRAF™ 5 mg/ml), was added to the culture medium at a final concentration ranging from 0.3 to 100 nM (0.3, 1, 3, 10, 30, 100 nM, as indicated). Where indicated, the humanized monoclonal antibody motavizumab directed against the respiratory syncytial virus (RSV), produced as a human IgG4 (by Evitria, Zurich, Switzerland), was added to the culture medium at a final concentration ranging from 1 to 100 μg/mL (1, 3, 10, 30, 100 μg/mL, as indicated). Human IgG4 can engage FcRI (CD64) and enhance the activation of human neutrophils triggered by immobilized immunoglobulins, which is mediated by FcRIIa and FcRIIIb, by the engagement of an additional signaling pathway.
# Human peripheral blood neutrophils were isolated and cultured as described in Example 1. In particular, freshly isolated peripheral blood neutrophils were distributed in coated plate as described in Example 1 (7.5×10^4 cells per well, corresponding to 10^6 cells/mL of culture medium) and cultured for the indicated time.
# The fluorescent, cell-impermeant, nucleic acid dye Sytox Green was added to the culture medium at a concentration of 1 μM to detect NET formation. ROS (reactive oxygen species) formation was identified by the use of a fluorescent oxidative-sensitive probe (CM-H2DCFDA, ThermoFisher Scientific—reference: C6827). […]
# [3] = tested on: human peripheral blood neutrophils; test: ROS formation with the oxidative-sensitive fluorescent probe CM-H2DCFDA, live cell imaging; settings: inhibitor 0 to 5 μM; plates coated with 100 μg/mL human polyvalent Ig; 6 hours
# Protocol: as §1, with “3” for “10”, “300” for “80”, “indicated. If no indication is given, deposits of human polyvalent Ig were obtained with a coating solution comprising human polyvalent Ig at a concentration of 100 μg/mL.” for “indicated.”
# as §4, with “Human IgG4 can engage FcRI (CD64) and enhance the activation of human neutrophils triggered by immobilized immunoglobulins, which is mediated by FcRIIa and FcRIIIb, by the engagement of an additional signaling pathway.” left out
# Time-lapse images were acquired by live cell fluorescent microscopy. Quantitative time-course measure of ROS and NET formation was performed by computer-assisted image analysis (data are expressed as GCU/well).
# [4] = tested on: human peripheral blood eosinophils; test: EET formation by eosinophils, live cell fluorescent microscopy (Sytox Green); settings: 5 μM inhibitor; 100 μg/mL of human polyvalent Ig
# Protocol: High-binding, sterile 96-well plates (Greiner Bio-One, Frickenhausen, Germany) were coated with human polyvalent Ig as described in Example 1, using a coating solution comprising human polyvalent Ig at a concentration ranging from 10 to 300 μg/mL, as indicated.
# Where indicated, the SYK inhibitor BAY-61-3606, obtained from Selleckchem (reference: S7006), was added to the culture medium at a final concentration of 5 μM.
# as §3, with “Eosinophils” for “Neutrophils”, “19656).” for “19666).”, “eosinophils” for “neutrophils”, “bovine serum albumin (negative control)” for “HSA”, “1.5×10^4” for “7.5×10^4”, “2×10^5” for “10^6”
# Time-lapse images were acquired by live cell fluorescent microscopy. Quantitative time-course measure of EET formation was performed by computer-assisted image analysis (data are expressed as GCU/well).
# [5] = tested on: human peripheral blood neutrophils; test: NET detection in fixed neutrophils by fluorescence microscopy (Sytox Green, nuclear morphology); settings: 4 hours of culture, plate-bound human polyvalent Ig (coating solution 100 μg/mL) or PMA (25 nM) in culture medium
# Protocol: as §2, with “300 μg/mL. […]” for “300 μg/mL.”
# Images were acquired by fluorescence microscopy in the green channel. […]
# [6] = 24-hour live imaging, plate-bound human polyvalent Ig (coating solution 100 μg/mL) or PMA 25 nM
molecule,measurement,setting,value
COc1ccc(-c2cc3nccn3c(Nc3ncccc3C(N)=O)n2)cc1OC [BAY-61-3606],ET formation induced by immobilized human polyvalent Ig,[1],no ET formation
same,NET formation induced by immobilized human polyvalent Ig,"[2]; inhibitor 0 to 5 μM, plates coated with 100 μg/mL human polyvalent Ig, 6 hours",decreased
same,NET formation elicited by motavizumab plus immobilized human polyvalent Ig,"[2]; inhibitor at a concentration of 5, 100 μg/mL motavizumab and immobilized human polyvalent Ig (100 μg/mL coating)",completely abolishes the NET formation
same,ROS production induced by immobilized human polyvalent Ig,[3],decreased
same,EET formation induced by immobilized human polyvalent Ig,[4],no EET formation
"CCCCCCCCCCCCCC(=O)O[C@@H]1[C@@H](C)[C@@]2(O)[C@@H](C=C(CO)C[C@]3(O)C(=O)C(C)=C[C@@H]23)[C@@H]2C(C)(C)[C@]12OC(C)=O [PMA, phorbol 12-myristate 13-acetate]",NET formation rate change,[2]; [6],causes NET formation from all neutrophils at once
same,NET formation time course,[2]; [6],"NET induction was visible on almost all neutrophils from 3-hour culture; also recorded: drives the simultaneous formation of NETs from a great number of neutrophils, within as soon as 3 hours of culture"
same,NET formation (nuclear morphology of neutrophils),[5],most neutrophils displayed signs of NETosis
B1,NET formation in presence of immobilized human polyvalent Ig,"[2]; antibody 0 to 100 μg/mL in culture medium, plates coated with 100 μg/mL human polyvalent Ig, compared to coated IVIG without motavizumab",drives a proportional increase in the formation of NETs
same,NET formation in absence of immobilized immunoglobulins,"[2]; antibody 0 to 100 μg/mL in culture medium, uncoated 96-well plates",is not able to drive the formation of NETs
